According to ChEMBL document CHEMBL3046787, “Molecular modeling studies of some substituted chalcone derivatives as cysteine protease inhibitors” (Med Chem Res, 2012):

Tested on: Plasmodium falciparum
Assay: Inhibition of Plasmodium falciparum W2

SMILES	IC50 (read-out: IC50) [nM]	IC50 (read-out: pIC50 (converted)) [nM]
COc1ccc(C(=O)/C=C/c2ccc(F)cc2F)c(OC)c1	11100	11100
COc1ccc(C(=O)/C=C/c2ccc(Cl)cc2Cl)c(OC)c1	3800	3800
COc1ccc(/C=C/C(=O)c2ccccn2)cc1	12000	12000
COc1ccc(/C=C/C(=O)c2ccc(F)cc2F)c(OC)c1	1900	1900
COc1ccc(OC)c(/C=C/C(=O)c2ccc3ccccc3c2)c1	5000	5000
COc1cccc(OC)c1/C=C/C(=O)c1ccc2ccccc2c1	3300	3300
COc1cc(/C=C/C(=O)c2cccc3ccccc23)cc(OC)c1OC	4800	4800
COc1cc(/C=C/C(=O)c2ccc3ccccc3c2)cc(OC)c1OC	6000	6000
COc1ccc(/C=C/C(=O)c2ccc3ccccc3c2)cc1OC	7700	7690
COc1ccc(/C=C/C(=O)c2cccc(Cl)c2Cl)c(OC)c1	1380	1380
COc1ccc(/C=C/C(=O)c2ccc(F)c(F)c2)c(OC)c1	2090	2090
COc1ccc(/C=C/C(=O)c2cccc3ccccc23)cc1OC	5000	5000
COc1cc(/C=C/C(=O)c2cccc3ccccc23)cc(OC)c1	4300	4300
COc1cc(/C=C/C(=O)c2ccc3ccccc3c2)cc(OC)c1	9500	9510
COc1ccc(/C=C/C(=O)c2cccc3ccccc23)c(OC)c1OC	5800	5790
COc1ccc(/C=C/C(=O)c2cccnc2)cc1	10000	10000
COc1ccc(/C=C/C(=O)c2ccncc2)cc1	12000	12000
COc1ccc(/C=C/C(=O)c2ccccn2)c(OC)c1	1700	1700
COc1ccc(/C=C/C(=O)c2cccnc2)c(OC)c1	2700	2700
COc1ccc(OC)c(/C=C/C(=O)c2ccccn2)c1	1400	1400
COc1ccc(/C=C/C(=O)c2ccccn2)c(OC)c1OC	2300	2300
COc1ccc(/C=C/C(=O)c2cccnc2)c(OC)c1OC	3900	3900
COc1ccc(/C=C/C(=O)c2ccncc2)c(OC)c1OC	3200	3200
COc1ccc(/C=C/C(=O)c2cccc3ccccc23)cc1	10000	10000
COc1ccc(/C=C/C(=O)c2cccc3ccccc23)c(OC)c1	4600	4600
COc1ccc(OC)c(/C=C/C(=O)c2cccc3ccccc23)c1	2800	2800
COc1cccc(OC)c1/C=C/C(=O)c1cccc2ccccc12	3100	3100

Compounds with a lower IC50 (read-out: IC50), results first:

IC50 (read-out: IC50) [nM]	IC50 (read-out: pIC50 (converted)) [nM]	SMILES
900	899	COc1ccc(/C=C/C(=O)c2ccc(Cl)cc2Cl)c(OC)c1
360	360	COc1ccc(/C=C/C(=O)c2ccc(Cl)cc2Cl)c(OC)c1OC
510	511	COc1ccc(/C=C/C(=O)c2cc3ccccc3nc2Cl)cc1OC
710	710	O=C(/C=C/c1cccnc1)c1cc2ccccc2nc1Cl
750	750	COc1ccc(OC)c(/C=C/C(=O)c2ccc(Cl)cc2Cl)c1
770	769	COc1cccc(OC)c1/C=C/C(=O)c1ccc(Cl)cc1
800	800	O=C(/C=C/c1ccc(Cl)c(Cl)c1)c1ccnc2ccccc12
1000	1000	COc1ccc(/C=C/C(=O)c2cc3ccccc3nc2Cl)c(OC)c1
1000	1000	O=C(/C=C/c1ccc(F)cc1F)c1cc2ccccc2nc1Cl
920	920	COc1ccc(OC)c(/C=C/C(=O)c2cccc(Cl)c2Cl)c1
1140	1140	COc1ccc(/C=C/C(=O)c2cccc(Cl)c2Cl)cc1OC
230	230	O=C(/C=C/c1cc(Cl)ccc1Cl)c1ccnc2ccccc12
1180	1180	O=C(/C=C/c1ccc(-n2ccnc2)cc1)c1ccc(Cl)cc1Cl
750	750	COc1ccc(/C=C/C(=O)c2ccc(C(F)(F)F)cc2)c(OC)c1
